Results published in article PMC13266999, “Designing Antibiotics with Inherent Resistance to Efflux as a Strategy to Revive Discovery against Multidrug-Resistant Pathogens” (Journal of Medicinal Chemistry, 2026).
In brackets after ≈: the same amount, converted by molar mass. Where two headings read alike, the source gives them in different places.

Tests used:
Pharmacokinetics = conditions: male, ICR (CD-1), mouse; for half-life: in vivo
Experimental: Pharmacokinetic studies were performed in male ICR (CD-1) mice obtained from Charles River, UK. […] Blood samples were collected from the caudal vein into anticoagulant-treated capillaries at predetermined time points up to 8 h, with terminal cardiac puncture at 8 h. Plasma samples were stored at −80 °C until analysis. […] A compound-specific LC-MS/MS method was developed for each test article using matrix-matched calibrators following protein precipitation of samples.

WT DNA gyrase = target: T1, WT DNA gyrase (Staphylococcus aureus, UniProt P0A0K8+P20831); test: DNA gyrase supercoiling inhibition assay; format: biochemical, S. aureus
T1 construct: purchased Inspiralis Ltd. (Norwich, UK)
Experimental: (§1) Gyrase inhibition was determined through biochemical assay kits from Inspiralis Ltd. (Norwich, UK), according to manufacturer’s instructions, and as described previously. Briefly, 1U of enzyme was incubated with 0.5 μg of relaxed […] DNA in the presence of compound in 1% DMSO for 30 min at 37 °C. A control reaction contained no compound but still contained 1% DMSO. The reactions were stopped through Stop Buffer addition and the DNA separated through addition of chloroform/iso-amyl alcohol (24;1). Samples were run on a 1% agarose gel at 75 V for 2 h, which was then stained with 1 μg/mL ethidium bromide and visualized using a NuGenius gel imager (Syngene). The intensity of the supercoiled DNA band was quantified using Syngene software, and the inhibition of the supercoiling of the DNA by the compounds was calculated.

[1] = target: T2, GyrA S84L mutant DNA gyrase (Staphylococcus aureus, UniProt P0A0K8+P20831, S84L); test: DNA gyrase supercoiling inhibition assay; format: biochemical, S. aureus
T2 construct: purchased Inspiralis Ltd. (Norwich, UK)
Experimental: as §1

E. coli [2] = test: MIC (microbroth dilution); format: cell-based; conditions: Escherichia coli
Experimental: (§2) All bacteria were maintained on tryptic soy agar (TSA), except Streptococcus spp., which were maintained on Columbia agar plates containing 5% horse blood. […] Bacteria were grown to stationary phase in liquid culture overnight, with shaking at 200 rpm, before being back diluted to the relevant starting concentration for each assay below. MICs were measured by the microbroth dilution method. […] Absorbance at OD600 was read on a CLARIOstar spectrophotometer (BMG Labtech) and the MIC was defined as the minimum concentration of compound where no visible growth was detected. […] MICs were also performed in the presence of the outer membrane permeator, polymyxin b nonapeptide (PMBN) following the same MIC method but with the following variation. The 2-fold dilution series of compound was prepared as above, then 50 μL of PMBN at a final concentration of 30 μg/mL was added to relevant wells, while 50 μL/well of blank media was added to the remaining wells. Bacteria were then added at 50 μL/well for a starting concentration as above. […] The MICs were read and defined as above. All animal procedures were performed by the contract research organization Pharmacology Discovery Services Taiwan in accordance with the Guide for the Care and Use of Laboratory Animals. The procedures were approved by the Institutional Ethics Committee of Pharmacology Discovery Services Taiwan, Ltd. (approval no. AB127662), in compliance with animal welfare legislation in Taiwan.

S. aureus [3] = test: Serial passaging, MIC of adapted strains; format: cell-based; conditions: Staphylococcus aureus
Experimental: MICs were performed on the first and 10th passage.

A. baumannii = test: Mutation frequency and agar MIC; format: cell-based; conditions: A118
Experimental: (§3) Mutation frequencies were performed on solid media at supra-inhibitory concentrations. First, the agar MIC was performed to account for any issues in solubility of compounds in solid media. Agar plates were prepared with 2-fold dilutions of compound.
(§4) For the mutation frequency assay, bacteria from an overnight culture were grown to mid exponential phase in liquid broth, then 100 μL was spread onto an agar plate containing compound at concentrations above the agar MIC. A Miles-Misra was also conducted on an antibiotic-free agar plate to determine the CFU/mL of the starting population. […] The mutation frequency was calculated by dividing the number of colonies on supra inhibitory con-centration plates by the starting population.

E. coli [4] = test: Mutation frequency and agar MIC; format: cell-based
Experimental: as §3, §4

S. aureus [5] = test: Mutation frequency and agar MIC; format: cell-based
Experimental: as §3, §4

K. pneumoniae = test: MIC (microbroth dilution); format: cell-based, Klebsiella pneumoniae
Experimental: as §2

[6] = 1199B adapted to 4 x MIC of Compound 7
[7] = 1199B adapted to 4 x MIC of Compound 46
[8] = 1199B adapted to 4 x MIC of Compound 50
[9] = 1199B adapted to 4 x MIC of Compound 51
[10] = 1199 adapted to 4 x MIC of Compound 7
[11] = 1199 adapted to 4 x MIC of Compound 46
[12] = 1199 adapted to 4 x MIC of Compound 50
[13] = 1199 adapted to 4 x MIC of Compound 51
[14] = NCTC13616, NCTC 13616 adapted to 4 x MIC of Compound 7
[15] = NCTC13616, NCTC 13616 adapted to 4 x MIC of Compound 46
[16] = NCTC13616, NCTC 13616 adapted to 4 x MIC of Compound 50
[17] = NCTC13616, NCTC 13616 adapted to 4 x MIC of Compound 51
[18] = Klebsiella pneumoniae, M6, read-out: MIC
[19] = Klebsiella pneumoniae, NCTC13368, NCTC 13368, read-out: MIC

SMILES | AUC(0-inf) (Pharmacokinetics; plasma, iv, 5 mg/kg) | MIC (E. coli [2]; 319238/UR) | MIC (E. coli [2]; LEC006) | MIC (E. coli [2]; LEC007) | MIC (E. coli [2]; LEC077) | MIC (E. coli [2]; LEC081) | MIC (E. coli [2]; NCTC10418, NCTC 10418) | MIC (E. coli [2]; NCTC11954, NCTC 11954) | MIC (E. coli [2]; NCTC12241, NCTC 12241) | MIC (E. coli [2]; NCTC12923, NCTC 12923) | MIC (S. aureus [3]; 1199B WT) | MIC (S. aureus [3]; [6]) | MIC (S. aureus [3]; [7]) | MIC (S. aureus [3]; [8]) | MIC (S. aureus [3]; [9]) | MIC (S. aureus [3]; 1199 WT) | MIC (S. aureus [3]; [10]) | MIC (S. aureus [3]; [11]) | MIC (S. aureus [3]; [12]) | MIC (S. aureus [3]; [13]) | other results
Cc1cc(C)nc(N[C@@H]2CCN(c3c(F)cc4c(=O)c(C(=O)O)cn5c4c3OC[C@@H]5C)C2)n1 [Compound 50, (S)-10-((R)-3-((4,6-Dimethylpyrimidin-2-yl)amino)pyrrolidin-1-yl)-9-fluoro-3-methyl-7-oxo-2,3-dihydro-7H-[1,4]oxazino[2,3,4-ij]quinoline-6-carboxylic acid] | 33100 ng·h/mL | 32 µg/mL (≈ 70.6 µM) | 0.5 µg/mL (≈ 1.1 µM) | 0.25 µg/mL (≈ 0.551 µM) | 8 µg/mL (≈ 17.6 µM) | 8 µg/mL (≈ 17.6 µM) | 0.125 µg/mL (≈ 0.276 µM) | 0.25 µg/mL (≈ 0.551 µM) | 0.25 µg/mL (≈ 0.551 µM) | 1 µg/mL (≈ 2.21 µM) | 0.03 µg/mL | ≤ 0.015 µg/mL | 0.125 µg/mL | 0.25 µg/mL | 0.03 µg/mL | 0.015 µg/mL | 0.03 µg/mL | ≤ 0.015 µg/mL | 0.125 µg/mL | ≤ 0.015 µg/mL | clearance (Pharmacokinetics; plasma, iv, 5 mg/kg): 2.52 mL/min/kg; Cmax (Pharmacokinetics; plasma, po, 20 mg/kg): 14500 ng/mL; Tmax (Pharmacokinetics; plasma, po, 20 mg/kg): 0.5 h; bioavailability (Pharmacokinetics; plasma, po, 20 mg/kg): 83%; IC50 (WT DNA gyrase): 5.56 µM; IC50 [1]: 8.38 µM; MIC (S. aureus [3]; NCTC13616, NCTC 13616 WT): 0.125 µg/mL; MIC (S. aureus [3]; [14]): 0.5 µg/mL; MIC (S. aureus [3]; [15]): 0.25 µg/mL; MIC (S. aureus [3]; [16]): 0.5 µg/mL; MIC (S. aureus [3]; [17]): 1 µg/mL; Agar MIC (A. baumannii): 0.25 µg/mL; Agar MIC (E. coli [4]; NCTC 12241): 0.25 µg/mL; Agar MIC (S. aureus [5]; ATCC 9144): 0.03 µg/mL; Agar MIC (S. aureus [5]; NCTC 13616): 0.5 µg/mL; MIC (K. pneumoniae; [18]): 2 µg/mL (≈ 4.41 µM); MIC (K. pneumoniae; [19]): 16 µg/mL (≈ 35.3 µM)
C[C@H]1COc2c(N3CC[C@@H](Nc4ncccn4)C3)c(F)cc3c(=O)c(C(=O)O)cn1c23 [Compound 46, (S)-9-Fluoro-3-methyl-7-oxo-10-((R)-3-(pyrimidin-2-ylamino)pyrrolidin-1-yl)-2,3-dihydro-7H-[1,4]oxazino[2,3,4-ij]quinoline-6-carboxylic acid] | 15700 ng·h/mL | 16 µg/mL (≈ 37.6 µM) | 0.125 µg/mL (≈ 0.294 µM) | 0.125 µg/mL (≈ 0.294 µM) | 4 µg/mL (≈ 9.4 µM) | 2 µg/mL (≈ 4.7 µM) | ≤ 0.06 µg/mL | 0.125 µg/mL (≈ 0.294 µM) | 0.06 µg/mL (≈ 0.141 µM) | 0.25 to 0.5 µg/mL (≈ 0.588 to 1.18 µM) | 0.015 µg/mL | 0.03 µg/mL | 0.125 µg/mL | 0.25 µg/mL | 0.06 µg/mL | 0.008 µg/mL | 0.015 µg/mL | 0.03 µg/mL | 0.125 µg/mL | 0.03 µg/mL | half-life (Pharmacokinetics; po, 20 mg/kg): 5.1 h; bioavailability (Pharmacokinetics; plasma, po, 20 mg/kg): 49.3%; IC50 (WT DNA gyrase): 7.92 µM; IC50 [1]: 95.3 µM; MIC (S. aureus [3]; NCTC13616, NCTC 13616 WT): 0.5 µg/mL; MIC (S. aureus [3]; [14]): 0.5 µg/mL; MIC (S. aureus [3]; [15]): 0.5 µg/mL; MIC (S. aureus [3]; [16]): 0.5 µg/mL; MIC (S. aureus [3]; [17]): 2 µg/mL; Agar MIC (A. baumannii): 0.03 µg/mL; Agar MIC (E. coli [4]; NCTC 12241): 0.03 µg/mL; Agar MIC (E. coli [4]; NCTC 12923): 0.12 µg/mL; Agar MIC (S. aureus [5]; ATCC 9144): 0.008 µg/mL; Agar MIC (S. aureus [5]; NCTC 13616): 0.5 µg/mL; MIC (K. pneumoniae; [18]): 1 to 2 µg/mL (≈ 2.35 to 4.7 µM); MIC (K. pneumoniae; [19]): 8 µg/mL (≈ 18.8 µM); MIC (K. pneumoniae; Klebsiella pneumoniae, TW3, read-out: MIC): 1 µg/mL (≈ 2.35 µM)
C[C@H]1COc2c(N3CCN(C)CC3)c(F)cc3c(=O)c(C(=O)O)cn1c23 [Levofloxacin, (S)-9-Fluoro-3-methyl-10-(4-methylpiperazin-1-yl)-7-oxo-2,3-dihydro-7H-[1,4]oxazino[2,3,4-ij]quinoline-6-carboxylic acid, reference compound] | 9170 ng·h/mL | 8 µg/mL (≈ 22.1 µM) | ≤ 0.06 µg/mL | ≤ 0.06 µg/mL | 0.5 µg/mL (≈ 1.38 µM) | 0.5 µg/mL (≈ 1.38 µM) | ≤ 0.06 µg/mL | ≤ 0.06 µg/mL | ≤ 0.06 µg/mL | ≤ 0.016 µg/mL | 1 µg/mL | 4 µg/mL | 2 µg/mL | 4 µg/mL | 2 µg/mL | 0.125 µg/mL | 1 µg/mL | 0.25 µg/mL | 1 µg/mL | 0.25 µg/mL | half-life (Pharmacokinetics; po, 20 mg/kg): 5.7 h; IC50 (WT DNA gyrase; WT enzyme, read-out: IC50 (converted)): 24.1 µM; IC50 ([1]; S84L mutant enzyme, read-out: IC50 (converted)): 545 µM; MIC (S. aureus [3]; NCTC13616, NCTC 13616 WT): 8 µg/mL; MIC (S. aureus [3]; [14]): > 32 µg/mL; MIC (S. aureus [3]; [15]): 16 µg/mL; MIC (S. aureus [3]; [16]): 16 µg/mL; MIC (S. aureus [3]; [17]): 32 µg/mL; Agar MIC (A. baumannii): 0.06 µg/mL; Agar MIC (E. coli [4]; NCTC 12241): 0.03 µg/mL; Agar MIC (E. coli [4]; NCTC 12923): 0.0078 µg/mL; Agar MIC (S. aureus [5]; ATCC 9144): 0.12 µg/mL; Agar MIC (S. aureus [5]; NCTC 13616): 4 µg/mL; MIC (K. pneumoniae; Klebsiella pneumoniae): 0.125 µg/mL (≈ 0.346 µM); MIC (K. pneumoniae; [19]): 2 µg/mL (≈ 5.53 µM); MIC (K. pneumoniae; TW3): 0.125 µg/mL (≈ 0.346 µM)
